Assay results from patent US6710090B2, “Inhibitory or blocking agents of molecular generating and/or inducing functions” (priority 1994, dated 2004).

How the values were obtained:
[1] = test system: human blood serum; test: Composition of amino acids in human blood serum; type: biochemical; conditions: Yoshixol 4 μl
Experimental: (§1) Changes in composition of amino acids were analyzed by use of 1 ml of human blood serum, 1 ml of human fibrinogen (concentration of 160 mg/dl), 1 ml of human thrombin before and after treatment with Yoshixol (4 μl). The total amino acids in the human blood serum which was treated with Yoshixol decreased by 41%. And, ratio of each composition was altered after the treatment so that as an example the concentration of phosphoserine increased about 20 times which level was from 7.2 picomole to 164.8 picomole.

[2] = target: T1, human fibrinogen (Homo sapiens, UniProt P02671+P02675+P02679); test: Composition of amino acids in fibrinogen; type: biochemical; conditions: Yoshixol 4 μl
T1 sequence (P02671 20-629 limits assumed): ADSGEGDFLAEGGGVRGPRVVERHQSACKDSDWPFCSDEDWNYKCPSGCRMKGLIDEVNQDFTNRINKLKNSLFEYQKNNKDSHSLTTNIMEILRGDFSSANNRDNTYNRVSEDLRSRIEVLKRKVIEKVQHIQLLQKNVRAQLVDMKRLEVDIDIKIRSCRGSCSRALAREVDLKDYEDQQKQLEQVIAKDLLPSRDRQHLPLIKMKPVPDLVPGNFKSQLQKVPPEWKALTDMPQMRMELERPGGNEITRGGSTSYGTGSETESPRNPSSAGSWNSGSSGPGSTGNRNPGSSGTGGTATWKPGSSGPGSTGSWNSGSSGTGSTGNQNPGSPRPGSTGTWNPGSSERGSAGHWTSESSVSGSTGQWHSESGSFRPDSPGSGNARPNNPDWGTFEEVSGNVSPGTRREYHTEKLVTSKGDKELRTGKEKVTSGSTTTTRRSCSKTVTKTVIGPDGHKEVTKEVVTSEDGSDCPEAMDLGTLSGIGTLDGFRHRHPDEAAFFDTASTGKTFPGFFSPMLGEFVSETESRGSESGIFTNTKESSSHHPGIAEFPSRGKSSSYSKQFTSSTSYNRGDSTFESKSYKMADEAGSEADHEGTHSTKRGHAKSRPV
T1 sequence (P02675 31-491): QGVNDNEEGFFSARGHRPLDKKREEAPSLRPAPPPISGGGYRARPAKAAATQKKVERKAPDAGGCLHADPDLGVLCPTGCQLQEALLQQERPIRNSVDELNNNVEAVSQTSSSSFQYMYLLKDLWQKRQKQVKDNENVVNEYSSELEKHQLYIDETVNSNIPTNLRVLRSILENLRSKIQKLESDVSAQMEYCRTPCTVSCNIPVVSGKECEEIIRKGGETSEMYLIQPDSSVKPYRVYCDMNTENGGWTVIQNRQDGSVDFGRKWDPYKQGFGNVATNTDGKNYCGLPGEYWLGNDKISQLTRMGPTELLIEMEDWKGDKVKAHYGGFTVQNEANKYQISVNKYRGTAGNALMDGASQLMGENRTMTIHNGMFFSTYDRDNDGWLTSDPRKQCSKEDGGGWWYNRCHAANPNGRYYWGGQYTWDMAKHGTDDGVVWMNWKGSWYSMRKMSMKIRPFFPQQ
T1 sequence (P02679 27-433 limits assumed): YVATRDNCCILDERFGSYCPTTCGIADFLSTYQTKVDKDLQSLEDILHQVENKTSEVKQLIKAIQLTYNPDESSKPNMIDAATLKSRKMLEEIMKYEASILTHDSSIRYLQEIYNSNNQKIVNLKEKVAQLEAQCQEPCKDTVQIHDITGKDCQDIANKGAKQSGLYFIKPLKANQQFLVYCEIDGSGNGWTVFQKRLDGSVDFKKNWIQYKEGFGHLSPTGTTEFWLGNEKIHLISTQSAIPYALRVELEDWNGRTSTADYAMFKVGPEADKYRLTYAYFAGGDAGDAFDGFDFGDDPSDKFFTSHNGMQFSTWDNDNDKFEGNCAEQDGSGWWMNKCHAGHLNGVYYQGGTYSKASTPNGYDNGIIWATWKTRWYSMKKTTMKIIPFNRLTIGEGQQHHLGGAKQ
Experimental: as §1

[3] = test system: Candida albicans; test: Antifungal effect; type: cell-based; conditions: for CFU: 2 μl per 1 ml of culture medium, 10^6 CFU/ml, Sabouraud broth
[4] = target: thrombin (Homo sapiens, UniProt P00734); test: Function and configuration of thrombin, electrophoresis; type: biochemical; parameters: thrombin (Behlinger Manheim-Yamanouchi Co.) was investigated by electrophoresis; purchased Behlinger Manheim-Yamanouchi Co; conditions: after treatment with Yoshixol 4 μl
Experimental: Each physiological effect of trypsin (Wakou Jyunyaku Ltd.) and thrombin (Behlinger Manheim-Yamanouchi Co.) was investigated by electrophoresis. When trypsin was added to bovine albumin (Sigma Co. Saint Louis, Mo., USA) or myoglobin (Sigma Co. Saint Louis, Mo., USA), each primary structure of proteins which consist of albumin was altered by proteolytic action of trypsin. In addition, when thrombin was added to human fibrinogen (Behlinger Manheim-Yamanouchi Co.), a primary structure of proteins which consists of fibrinogen was not found.

[5] = Acute and chronic toxicity, intravenous; type: in vivo, rabbit and dog
Experimental: In order to investigate a toxicity in vivo, the solution which was mixed 50 μl/Kg of Yoshixol with 1 ml of 20% glucose solution was administered intravenously in unanesthetized animals (rabbit and dog). […] Even though intravenous administration alone was done, it may be confirmed that it is safety.

[6] = rabbit and dog, 50 μl/Kg intravenously

Structure (SMILES): C=C1CC(C)(C)C=CC1=O [Yoshixol, 4,4-dimethyl-6-methylene-2-cyclohexen-1-one]
- decrease of total amino acids in human blood serum ([1]; 1 ml human blood serum): 41%
- increase of concentration of phosphoserine ([1]; human blood serum): about 20 times
- concentration of phosphoserine after treatment ([1]; human blood serum, before 7.2 picomole): 164.8 picomole
- concentration of the total amino acids in fibrinogen ([2]; 1 ml human fibrinogen 160 mg/dl): did not change
- increase of concentration of cystathione in fibrinogen [2]: more than 5 times
- glutamic acid and hydroxyl serine in fibrinogen ([2]; existed before treatment): disappeared
- CFU ([3]; after 1 hour): zero
- CFU ([3]; after 3 hours incubated): zero
- proliferation with evaporating component of Yoshixol ([3]; 50 μl in the whole space of the schale, indirect contact, 24 hours, 37° C.): did not occur
- physiological function of thrombin to fibrinogen [4]: did not occur
- primary structure of thrombin (electrophoresis) [4]: did not show any electrophoretic changes
- duration of transitional signs after the administration [5, 6]: 1 to 2 min
- platelets [5, 6]: A change in platelets was not observed
- pathological findings in the vital organs, macroscopically and microscopically ([5]; rabbit and dog, 50 μl/Kg intravenously, after 1 month): any pathological findings were not observed
- abnormal behavior ([5]; rabbit and dog, 50 μl/Kg intravenously, observation period of 2 hours): an abnormal behavior was not found
- abnormal behavior ([5]; rabbit and dog, 50 μl/Kg intravenously, observed over 1 month): any abnormal behavior did not found
- white blood cells ([5]; rabbit and dog, 50 μl/Kg intravenously, recovery to normal level at 1 week): increased 3 days after administration
- examination of blood, anemia ([5]; rabbit and dog, 50 μl/Kg intravenously, recovery to the normal after 1 week): hyperchromic anemia at the maximum level occurred 3 days after administration
- respiration rate, blood pressure, heart rate and movements of an extremity after injection ([5]; unanesthetized rabbit and dog, 50 μl/Kg intravenously in 1 ml 20% glucose solution): transitional increase in respiration rate, increase in blood pressure and heart rate and active movements of an extremity (not convulsion)
